# Laboratory results from the kinase profiling compilation of Christmann-Franck et al. (2016).
# How the values were obtained:
# Details in all cases: compound 1.0 µM
# ABL1 (human) = ABL1 (human) (UniProt P00519)
# AKT1 (human) = AKT1 (human) (UniProt P31749)
# AURKA (human) = AURKA (human) (UniProt O14965)
# CDK2 (human) = CDK2 (human) (UniProt P24941)
# CHEK1 (human) = CHEK1 (human) (UniProt O14757)
# CSNK2A1 (human) = CSNK2A1 (human) (UniProt P68400)
# FGFR1 (human) = FGFR1 (human) (UniProt P11362)
# Chain of FGFR1 (human) (P11362 whole entry, looked up): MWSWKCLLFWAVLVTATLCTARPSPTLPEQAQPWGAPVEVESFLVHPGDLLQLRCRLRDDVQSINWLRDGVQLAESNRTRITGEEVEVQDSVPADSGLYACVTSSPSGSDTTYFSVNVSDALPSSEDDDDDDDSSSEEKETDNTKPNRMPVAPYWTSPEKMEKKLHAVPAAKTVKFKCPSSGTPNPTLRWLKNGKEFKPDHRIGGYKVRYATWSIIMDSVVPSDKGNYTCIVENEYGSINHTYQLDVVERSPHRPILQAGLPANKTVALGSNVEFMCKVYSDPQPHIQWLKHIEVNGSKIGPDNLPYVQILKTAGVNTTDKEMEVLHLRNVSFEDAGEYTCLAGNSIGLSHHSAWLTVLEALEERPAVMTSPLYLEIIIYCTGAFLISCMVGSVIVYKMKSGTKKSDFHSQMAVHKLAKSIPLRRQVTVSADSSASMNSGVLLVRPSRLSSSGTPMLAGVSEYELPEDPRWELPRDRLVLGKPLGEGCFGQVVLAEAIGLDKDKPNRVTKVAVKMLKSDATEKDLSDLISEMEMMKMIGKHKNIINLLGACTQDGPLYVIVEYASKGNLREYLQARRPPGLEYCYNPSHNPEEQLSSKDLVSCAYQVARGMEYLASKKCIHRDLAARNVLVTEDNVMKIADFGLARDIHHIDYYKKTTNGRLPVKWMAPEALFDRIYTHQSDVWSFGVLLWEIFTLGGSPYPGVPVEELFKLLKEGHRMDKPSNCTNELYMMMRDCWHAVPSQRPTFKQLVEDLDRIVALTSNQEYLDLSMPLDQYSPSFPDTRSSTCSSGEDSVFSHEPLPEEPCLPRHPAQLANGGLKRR
# GSK3B (human) = GSK3B (human) (UniProt P49841)
# IKBKB (human) = IKBKB (human) (UniProt O14920)
# IKBKE (human) = IKBKE (human) (UniProt Q14164)
# INSR (human) = INSR (human) (UniProt P06213)
# KDR (human) = KDR (human) (UniProt P35968)
# Chain of KDR (human) (P35968 whole entry, looked up): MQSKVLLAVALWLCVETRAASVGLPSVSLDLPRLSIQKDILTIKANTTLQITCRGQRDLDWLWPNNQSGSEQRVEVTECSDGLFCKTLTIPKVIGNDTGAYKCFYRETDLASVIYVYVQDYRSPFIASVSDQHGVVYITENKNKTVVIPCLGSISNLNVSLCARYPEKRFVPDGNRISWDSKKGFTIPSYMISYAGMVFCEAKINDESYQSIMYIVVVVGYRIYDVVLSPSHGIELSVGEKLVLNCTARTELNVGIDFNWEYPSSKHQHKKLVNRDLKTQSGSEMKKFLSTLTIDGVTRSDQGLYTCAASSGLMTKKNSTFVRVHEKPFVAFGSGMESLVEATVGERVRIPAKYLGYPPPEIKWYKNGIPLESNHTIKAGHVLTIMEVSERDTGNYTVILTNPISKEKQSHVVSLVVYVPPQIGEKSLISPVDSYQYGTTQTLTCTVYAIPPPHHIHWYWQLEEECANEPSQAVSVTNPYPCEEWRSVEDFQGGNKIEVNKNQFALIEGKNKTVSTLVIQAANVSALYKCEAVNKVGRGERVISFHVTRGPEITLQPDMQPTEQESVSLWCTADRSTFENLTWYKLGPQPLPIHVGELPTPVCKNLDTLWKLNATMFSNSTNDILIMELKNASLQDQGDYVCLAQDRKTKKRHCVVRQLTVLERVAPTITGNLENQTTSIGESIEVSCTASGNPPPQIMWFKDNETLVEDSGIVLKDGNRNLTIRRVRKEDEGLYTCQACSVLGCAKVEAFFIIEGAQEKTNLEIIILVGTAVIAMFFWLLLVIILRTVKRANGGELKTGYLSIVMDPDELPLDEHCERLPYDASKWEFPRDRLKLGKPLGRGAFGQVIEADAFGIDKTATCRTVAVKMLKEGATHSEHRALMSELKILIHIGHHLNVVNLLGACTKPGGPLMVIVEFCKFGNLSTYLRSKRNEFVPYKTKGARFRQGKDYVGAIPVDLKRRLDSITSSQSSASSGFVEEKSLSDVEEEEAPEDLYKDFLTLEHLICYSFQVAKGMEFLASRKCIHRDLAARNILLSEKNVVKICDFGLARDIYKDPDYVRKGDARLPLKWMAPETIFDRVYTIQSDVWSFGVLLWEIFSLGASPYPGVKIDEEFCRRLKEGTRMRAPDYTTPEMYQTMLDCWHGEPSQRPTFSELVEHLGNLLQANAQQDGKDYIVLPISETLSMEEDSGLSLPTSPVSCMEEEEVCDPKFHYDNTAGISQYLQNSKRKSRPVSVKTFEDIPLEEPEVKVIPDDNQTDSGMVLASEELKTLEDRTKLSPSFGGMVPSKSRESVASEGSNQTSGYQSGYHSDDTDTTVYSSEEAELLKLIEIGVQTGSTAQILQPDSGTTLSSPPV
# LCK (human) = LCK (human) (UniProt P06239)
# MAPK1 (human) = MAPK1 (human) (UniProt P28482)
# MAPKAPK2 (human) = MAPKAPK2 (human) (UniProt P49137)
# MET (human) = MET (human) (UniProt P08581)
# MST4 (human) = MST4 (human) (UniProt Q9P289)
# Chain of MST4 (human) (Q9P289 whole entry, looked up): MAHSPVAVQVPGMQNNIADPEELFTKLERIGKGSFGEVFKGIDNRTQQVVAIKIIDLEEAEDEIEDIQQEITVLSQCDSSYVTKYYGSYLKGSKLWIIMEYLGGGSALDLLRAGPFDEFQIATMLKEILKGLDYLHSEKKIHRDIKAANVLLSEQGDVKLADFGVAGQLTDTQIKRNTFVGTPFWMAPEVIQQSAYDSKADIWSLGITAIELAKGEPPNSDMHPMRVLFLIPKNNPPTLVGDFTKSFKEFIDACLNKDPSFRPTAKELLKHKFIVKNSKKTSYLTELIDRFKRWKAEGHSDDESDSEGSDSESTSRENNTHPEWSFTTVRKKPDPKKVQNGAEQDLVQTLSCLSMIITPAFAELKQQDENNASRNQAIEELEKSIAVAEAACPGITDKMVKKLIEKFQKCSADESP
# NTRK1 (human) = NTRK1 (human) (UniProt P04629)
# PAK4 (human) = PAK4 (human) (UniProt O96013)
# PDPK1 (human) = PDPK1 (human) (UniProt O15530)
# PRKACA (human) = PRKACA (human) (UniProt P17612)
# PRKCB1 (human) = PRKCB1 (human) (UniProt P05771)
# Chain of PRKCB1 (human) (P05771 whole entry, looked up): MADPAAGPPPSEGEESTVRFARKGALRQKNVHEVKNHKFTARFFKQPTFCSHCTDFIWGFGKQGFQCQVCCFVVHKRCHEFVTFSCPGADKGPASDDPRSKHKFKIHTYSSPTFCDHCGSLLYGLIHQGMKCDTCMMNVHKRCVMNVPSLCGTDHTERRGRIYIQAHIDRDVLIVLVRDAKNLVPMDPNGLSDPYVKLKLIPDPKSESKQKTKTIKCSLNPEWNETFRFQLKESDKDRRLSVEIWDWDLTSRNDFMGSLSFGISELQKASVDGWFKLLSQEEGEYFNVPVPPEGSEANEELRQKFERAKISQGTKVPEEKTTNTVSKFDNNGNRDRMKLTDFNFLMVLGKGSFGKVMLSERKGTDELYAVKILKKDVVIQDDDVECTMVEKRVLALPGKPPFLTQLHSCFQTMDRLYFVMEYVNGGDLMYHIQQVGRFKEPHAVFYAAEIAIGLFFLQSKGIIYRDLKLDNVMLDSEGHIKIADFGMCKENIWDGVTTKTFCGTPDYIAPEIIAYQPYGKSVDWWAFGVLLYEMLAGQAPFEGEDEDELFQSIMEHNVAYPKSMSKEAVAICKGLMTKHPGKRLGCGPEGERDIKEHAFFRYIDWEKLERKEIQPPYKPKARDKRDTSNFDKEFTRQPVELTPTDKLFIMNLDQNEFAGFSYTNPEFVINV
# ROCK1 (human) = ROCK1 (human) (UniProt Q13464)
# Chain of ROCK1 (human) (Q13464 whole entry, looked up): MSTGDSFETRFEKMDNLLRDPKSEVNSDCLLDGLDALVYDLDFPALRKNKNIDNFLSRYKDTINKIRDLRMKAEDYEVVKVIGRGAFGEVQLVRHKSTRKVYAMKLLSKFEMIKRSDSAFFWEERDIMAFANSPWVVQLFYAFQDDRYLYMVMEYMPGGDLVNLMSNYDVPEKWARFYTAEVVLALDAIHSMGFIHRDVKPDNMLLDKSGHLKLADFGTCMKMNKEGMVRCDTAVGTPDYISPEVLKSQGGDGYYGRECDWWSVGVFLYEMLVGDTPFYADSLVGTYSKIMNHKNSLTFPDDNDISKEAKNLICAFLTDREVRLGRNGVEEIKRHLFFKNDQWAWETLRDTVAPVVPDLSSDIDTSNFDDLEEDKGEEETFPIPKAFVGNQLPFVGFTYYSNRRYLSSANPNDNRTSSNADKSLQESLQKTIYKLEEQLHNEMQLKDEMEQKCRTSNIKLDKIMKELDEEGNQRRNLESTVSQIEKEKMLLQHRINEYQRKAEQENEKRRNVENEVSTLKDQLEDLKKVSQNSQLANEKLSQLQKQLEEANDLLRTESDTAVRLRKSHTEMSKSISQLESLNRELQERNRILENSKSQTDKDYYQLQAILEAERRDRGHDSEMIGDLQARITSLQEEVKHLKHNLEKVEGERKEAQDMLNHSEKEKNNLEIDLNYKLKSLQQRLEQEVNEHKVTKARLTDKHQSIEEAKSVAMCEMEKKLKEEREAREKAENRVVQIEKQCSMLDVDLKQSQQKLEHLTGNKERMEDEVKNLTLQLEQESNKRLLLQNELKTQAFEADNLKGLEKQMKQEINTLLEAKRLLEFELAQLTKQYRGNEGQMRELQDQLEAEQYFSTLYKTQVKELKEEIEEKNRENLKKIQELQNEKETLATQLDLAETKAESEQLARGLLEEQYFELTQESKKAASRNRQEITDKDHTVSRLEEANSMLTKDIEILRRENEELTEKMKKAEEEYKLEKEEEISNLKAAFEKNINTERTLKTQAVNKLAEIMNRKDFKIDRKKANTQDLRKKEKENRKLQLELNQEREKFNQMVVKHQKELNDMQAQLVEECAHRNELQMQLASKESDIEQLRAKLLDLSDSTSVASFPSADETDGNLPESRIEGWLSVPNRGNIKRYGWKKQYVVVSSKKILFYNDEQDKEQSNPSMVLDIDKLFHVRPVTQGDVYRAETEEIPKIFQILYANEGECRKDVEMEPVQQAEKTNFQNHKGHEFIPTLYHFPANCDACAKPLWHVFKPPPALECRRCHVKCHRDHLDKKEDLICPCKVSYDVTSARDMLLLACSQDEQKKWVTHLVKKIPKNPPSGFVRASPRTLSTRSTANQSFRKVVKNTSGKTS
# SRC (human) = SRC (human) (UniProt P12931)
# TAOK3 (human) = TAOK3 (human) (UniProt Q9H2K8)
# MAPK14 (human) = MAPK14 (human) (UniProt Q16539)
# Chain of MAPK14 (human) (Q16539 whole entry, looked up): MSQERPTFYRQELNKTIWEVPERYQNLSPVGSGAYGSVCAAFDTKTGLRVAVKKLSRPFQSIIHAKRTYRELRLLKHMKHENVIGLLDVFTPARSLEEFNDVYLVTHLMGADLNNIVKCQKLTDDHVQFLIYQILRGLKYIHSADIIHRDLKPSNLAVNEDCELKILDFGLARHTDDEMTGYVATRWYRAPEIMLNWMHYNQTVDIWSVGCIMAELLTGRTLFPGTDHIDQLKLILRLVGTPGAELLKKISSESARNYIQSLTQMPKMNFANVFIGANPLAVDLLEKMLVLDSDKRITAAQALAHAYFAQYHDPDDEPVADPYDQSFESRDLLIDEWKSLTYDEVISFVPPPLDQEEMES
# EGFR (human) = EGFR (human) (UniProt P00533)
inhibition (ABL1 (human)),inhibition (AKT1 (human)),inhibition (AURKA (human)),inhibition (CDK2 (human)),inhibition (CHEK1 (human)),inhibition (CSNK2A1 (human)),inhibition (FGFR1 (human)),inhibition (GSK3B (human)),inhibition (IKBKB (human)),inhibition (IKBKE (human)),inhibition (KDR (human)),inhibition (MAPK1 (human)),inhibition (MAPKAPK2 (human)),inhibition (MET (human)),inhibition (MST4 (human)),inhibition (PDPK1 (human)),inhibition (PRKCB1 (human)),inhibition (ROCK1 (human)),inhibition (SRC (human)),inhibition (TAOK3 (human)),Structure (SMILES),further results
3.15%,0.56%,0%,0%,0%,0%,0%,52.6%,0%,0%,13.5%,11.7%,0%,0%,0%,0%,23.6%,4.88%,16.6%,15.7%,CS(=O)c1ccc(-c2nc(-c3ccc(F)cc3)c(-c3ccncc3)[nH]2)cc1 (stereo not given),inhibition (INSR (human)): 0.995%; inhibition (LCK (human)): 7.1%; inhibition (NTRK1 (human)): 4.44%; inhibition (PAK4 (human)): 6.86%; inhibition (PRKACA (human)): 18.4%
0%,16%,4.4%,0%,0%,0%,0%,0%,0%,0%,4%,1.5%,0%,0%,3.5%,0%,5.6%,86.1%,0.9%,0%,O=S(=O)(c1cccc2cnccc12)N1CCCNCC1,inhibition (INSR (human)): 1.9%; inhibition (LCK (human)): 0%; inhibition (MAPK14 (human)): 0.9%; inhibition (NTRK1 (human)): 0.9%
0%,3.5%,0%,7%,1.8%,20.5%,0%,3.4%,0%,0%,11.9%,11.7%,73.7%,30.4%,10%,0%,0%,5.4%,9.9%,33.8%,O=C1NCCc2[nH]c(-c3ccnc(-c4ccccc4F)c3)cc21,inhibition (LCK (human)): 0%; inhibition (MAPK14 (human)): 6.7%; inhibition (PAK4 (human)): 4.1%; inhibition (PRKACA (human)): 4.3%

# The remaining lines, values behind:
Structure (SMILES),inhibition (ABL1 (human)),inhibition (AKT1 (human)),inhibition (AURKA (human)),inhibition (CDK2 (human)),inhibition (CHEK1 (human)),inhibition (CSNK2A1 (human)),inhibition (FGFR1 (human)),inhibition (GSK3B (human)),inhibition (IKBKB (human)),inhibition (IKBKE (human)),inhibition (KDR (human)),inhibition (MAPK1 (human)),inhibition (MAPKAPK2 (human)),inhibition (MET (human)),inhibition (MST4 (human)),inhibition (PDPK1 (human)),inhibition (PRKCB1 (human)),inhibition (ROCK1 (human)),inhibition (SRC (human)),inhibition (TAOK3 (human)),further results
C#Cc1cccc(Nc2ncnc3cc(OCCOC)c(OCCOC)cc23)c1,80.6%,11.1%,39.1%,0%,0%,0%,0%,13.6%,6.5%,6.5%,63.6%,2.3%,0%,19.4%,18.7%,0%,27.9%,0%,36.7%,0%,inhibition (INSR (human)): 3.4%; inhibition (MAPK14 (human)): 0%; inhibition (NTRK1 (human)): 18.5%; inhibition (PAK4 (human)): 5.7%; inhibition (PRKACA (human)): 0.1%
CS(=O)(=O)CCNCc1ccc(-c2ccc3ncnc(Nc4ccc(OCc5cccc(F)c5)c(Cl)c4)c3c2)o1,0%,0%,0%,0%,0%,0%,0%,0%,0%,0%,0%,0%,0%,0%,0%,0%,0%,0%,0%,0%,inhibition (INSR (human)): 0%; inhibition (LCK (human)): 0%; inhibition (MAPK14 (human)): 0%; inhibition (NTRK1 (human)): 0%; inhibition (PAK4 (human)): 0%; inhibition (PRKACA (human)): 0%
Cc1ccc(-c2nn(C(C)(C)C)c3ncnc(N)c23)cc1,82.9%,10.6%,8.8%,2.5%,0%,1%,50.1%,2.8%,4.4%,3.9%,70.6%,6.6%,0.2%,11.3%,14.8%,0%,17.5%,2.8%,93.4%,17.4%,inhibition (LCK (human)): 94.5%; inhibition (MAPK14 (human)): 33.7%; inhibition (NTRK1 (human)): 49.8%; inhibition (PAK4 (human)): 5.3%; inhibition (PRKACA (human)): 29.2%
CC[C@@H](CO)Nc1nc(NCc2ccccc2)c2ncn(C(C)C)c2n1,8.86%,0%,0%,,0%,1.93%,0%,0%,0%,0.63%,1.35%,0%,0%,0%,0%,0%,8.46%,0%,4.9%,3.7%,inhibition (EGFR (human)): 5.07%; inhibition (INSR (human)): 1.28%; inhibition (LCK (human)): 0%; inhibition (MAPK14 (human)): 5.04%; inhibition (NTRK1 (human)): 3.46%; inhibition (PAK4 (human)): 2.92%; inhibition (PRKACA (human)): 5.58%
